Results from PMC7413254 (Nature Communications, 2020).
Read-outs that look alike come from different tables or passages of the source.

What was measured:
[1] = molecular target: T1, PfCRT^Dd2 (Plasmodium falciparum, UniProt Q9N623, A220S/I356T/K76T/M74I/N326S/N75E/Q271E/R371I); experiment: [3H]CQ uptake into Xenopus oocytes, cis-inhibition by unlabelled solute; format: cell-based; conditions: PfCRTDd2 oocytes, background [3H]CQ accumulation subtracted, normalised to oocyte type control
Procedure, shortened: (§1)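 Washed oocytes (ten per treatment) were exposed to label in pH 5.5 ND96 for 1.5 h at 27.5 °C. Buffer was then removed, cells rinsed in ice-cold ND96, lysed in SDS and counted.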

[2] = molecular target: T2, PfCRT^Ecu1110 (Plasmodium falciparum, UniProt Q9N623, A220S/I356L/K76T/N326D); experiment: as above; format: cell-based; conditions: for Uptake of [3H]CQ (% PfCRTEcu1110 control), cis-inhibition / PfCRT-mediated [3H]CQ transport, cis-inhibition (% PfCRTEcu1110 control): PfCRTEcu1110 oocytes; for Uptake of [3H]CQ (% PfCRTEcu1110 control), cis-inhibition: total [3H]CQ transport, normalised to the oocyte type control; for PfCRT-mediated [3H]CQ transport, cis-inhibition (% PfCRTEcu1110 control): background [3H]CQ accumulation subtracted, normalised to oocyte type control; for [3H]CQ transport (% PfCRTEcu1110 control), cis-inhibition, PfCRTEcu1110: PfCRT-mediated component (background subtracted), sheet title says normalised to PfCRTDd2 control, mean ± SEM, SEM
Procedure, shortened: as §1

[3] = molecular target: T3, PfCRT^3D7 (Plasmodium falciparum, UniProt Q8IBZ9); experiment: cell-based; format: cell-based; conditions: PfCRT3D7 oocytes, total [3H]CQ transport, normalised to the oocyte type control
Procedure, shortened: as §1

[4] = test system: non-expressing oocytes; format: cell-based, Xenopus laevis; conditions: non-expressing oocytes, total [3H]CQ transport, normalised to the oocyte type control
Procedure, shortened: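 Oocytes (ten per treatment, ≥4 independent frogs/days) were preloaded by injecting VF-6 in 25 nL ND96 at pH 5.0, 5.5, 6.0 or 7.0, or Na^+-free choline buffer, then uptake run 1.5 h, 27.5 °C, ND96 pH 5.5 by default. Internal concentrations assumed ~400 nL oocyte volume.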

[5] = molecular target: T1, PfCRT^Dd2; experiment: cell-based; format: cell-based; conditions: for Uptake of [3H]CQ (% PfCRTDd2 control), trans-stimulation / PfCRT-mediated [3H]CQ transport, trans-stimulation (% PfCRTDd2 control): PfCRTDd2 oocytes; for Uptake of [3H]CQ (% PfCRTDd2 control), trans-stimulation: total [3H]CQ transport, normalised to the oocyte type control; for PfCRT-mediated [3H]CQ transport, trans-stimulation (% PfCRTDd2 control): normalised to oocyte type control; for [3H]CQ transport (% PfCRTDd2 control), trans-stimulation, PfCRTDd2: PfCRT-mediated component (background subtracted), mean ± SEM, SEM
Procedure, shortened: (§2)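 Transport measured in Xenopus oocytes expressing the transporters, 1.5 h at 27.5 °C in ND96 pH 5.5 unless noted. For trans-stimulation, VF-6 injected in 25 nL ND96 at pH 5.0–7.0 or Na^+-free (choline) buffer; intracellular levels based on ~400 nL oocyte volume. Ten oocytes per treatment, ≥4 experiments.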

[6] = molecular target: T4, PfNT1 (Plasmodium falciparum, UniProt Q8IDM6); experiment: cell-based; format: cell-based; conditions: PfNT1 oocytes, total [3H]CQ transport, normalised to the oocyte type control
T4 construct: expressed in transfected cells; host or cells: Xenopus laevis oocytes (stage V-VI), cRNA-injected
Procedure, shortened: as §2

[7] = molecular target: T2, PfCRT^Ecu1110; experiment: cell-based; format: cell-based; conditions: for Uptake of [3H]CQ (% PfCRTEcu1110 control), trans-stimulation / PfCRT-mediated [3H]CQ transport, trans-stimulation (% PfCRTEcu1110 control): PfCRTEcu1110 oocytes; for Uptake of [3H]CQ (% PfCRTEcu1110 control), trans-stimulation: total [3H]CQ transport, normalised to the oocyte type control; for PfCRT-mediated [3H]CQ transport, trans-stimulation (% PfCRTEcu1110 control): normalised to oocyte type control; for [3H]CQ transport (% PfCRTDd2 control), trans-stimulation, PfCRTEcu1110: PfCRT-mediated component (background subtracted), sheet title says normalised to PfCRTDd2 control, mean ± SEM, SEM
Procedure, shortened: as §2

[8] = molecular target: T3, PfCRT^3D7; experiment: cell-based; format: cell-based; conditions: PfCRT3D7 oocytes; for Uptake of [3H]CQ (% PfCRT3D7 control), trans-stimulation: total [3H]CQ transport, normalised to the oocyte type control; for PfCRT-mediated [3H]CQ transport, trans-stimulation (% PfCRT3D7 control): normalised to oocyte type control
Procedure, shortened: as §2

[9] = test system: non-expressing oocytes; experiment: cells; format: cell-based, Xenopus laevis; conditions: non-expressing oocytes, total [3H]CQ transport, normalised to the oocyte type control
Procedure, shortened: as §1

[10] = [test solute]i = 45 mM (30 mM for some solutes due to solubility)
[11] = [test solute]i = 5 mM (intracellular)
[12] = [test solute]i = 45 mM (intracellular; 30 mM for some solutes due to solubility)
[13] = [test solute]i = 5 mM (injected)

T2 sequence (Q9N623 whole entry A220S/I356L/K76T/N326D): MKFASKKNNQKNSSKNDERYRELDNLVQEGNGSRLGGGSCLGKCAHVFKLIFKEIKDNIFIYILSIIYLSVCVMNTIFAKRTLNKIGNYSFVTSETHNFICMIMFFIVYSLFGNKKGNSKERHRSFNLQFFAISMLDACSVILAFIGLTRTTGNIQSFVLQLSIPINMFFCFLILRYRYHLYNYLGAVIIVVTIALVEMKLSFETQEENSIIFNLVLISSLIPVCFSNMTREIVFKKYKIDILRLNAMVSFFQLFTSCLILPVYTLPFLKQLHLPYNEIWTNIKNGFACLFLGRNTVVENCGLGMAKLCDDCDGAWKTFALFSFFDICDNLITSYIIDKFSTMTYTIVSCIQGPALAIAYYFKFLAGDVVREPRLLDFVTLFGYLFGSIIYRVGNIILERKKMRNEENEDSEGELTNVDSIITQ
T1 sequence (Q9N623 whole entry A220S/I356T/K76T/M74I/N326S/N75E/Q271E/R371I): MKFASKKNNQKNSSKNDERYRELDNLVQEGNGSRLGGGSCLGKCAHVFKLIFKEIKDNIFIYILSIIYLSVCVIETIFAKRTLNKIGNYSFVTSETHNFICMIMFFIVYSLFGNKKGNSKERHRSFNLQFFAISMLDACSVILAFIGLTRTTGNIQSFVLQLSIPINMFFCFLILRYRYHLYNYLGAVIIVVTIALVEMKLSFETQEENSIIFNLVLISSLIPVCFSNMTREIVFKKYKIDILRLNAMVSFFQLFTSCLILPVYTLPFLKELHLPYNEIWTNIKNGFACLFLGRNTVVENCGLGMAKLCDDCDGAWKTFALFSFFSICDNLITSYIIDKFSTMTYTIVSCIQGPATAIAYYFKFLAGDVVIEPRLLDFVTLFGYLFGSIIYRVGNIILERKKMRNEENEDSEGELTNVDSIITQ
T3 sequence (Q8IBZ9 59-398): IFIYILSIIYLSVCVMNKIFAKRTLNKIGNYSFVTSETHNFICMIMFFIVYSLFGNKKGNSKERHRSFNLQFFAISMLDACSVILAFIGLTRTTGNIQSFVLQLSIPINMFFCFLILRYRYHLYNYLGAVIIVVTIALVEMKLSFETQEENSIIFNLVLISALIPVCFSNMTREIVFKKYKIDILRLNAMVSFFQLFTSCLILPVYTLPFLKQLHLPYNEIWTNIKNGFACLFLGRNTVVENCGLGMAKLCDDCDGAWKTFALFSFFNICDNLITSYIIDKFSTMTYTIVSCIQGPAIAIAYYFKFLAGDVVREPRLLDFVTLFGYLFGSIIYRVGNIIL
T4 sequence (Q8IDM6 whole entry): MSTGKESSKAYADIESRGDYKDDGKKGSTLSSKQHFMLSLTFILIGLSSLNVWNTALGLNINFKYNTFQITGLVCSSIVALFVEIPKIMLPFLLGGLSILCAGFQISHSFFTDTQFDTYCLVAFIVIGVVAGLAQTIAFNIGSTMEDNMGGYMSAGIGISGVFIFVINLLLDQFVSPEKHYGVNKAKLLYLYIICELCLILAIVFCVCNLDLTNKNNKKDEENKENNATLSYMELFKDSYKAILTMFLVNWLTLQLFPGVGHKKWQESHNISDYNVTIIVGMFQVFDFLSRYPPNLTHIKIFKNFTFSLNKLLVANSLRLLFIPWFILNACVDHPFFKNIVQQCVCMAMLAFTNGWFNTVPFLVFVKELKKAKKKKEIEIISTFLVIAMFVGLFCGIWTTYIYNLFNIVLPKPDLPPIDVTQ

Q: Which results are given for PENF [PEF-4]?
A: PfCRT-mediated [3H]CQ transport, cis-inhibition (% PfCRTDd2 control) ([1]; [test solute] = 0.5 mM): 52 ± 2.0 % PfCRTDd2 control; PfCRT-mediated [3H]CQ transport, cis-inhibition (% PfCRTDd2 control) ([1]; [test solute] = 1 mM): 37 ± 2.1 % PfCRTDd2 control; PfCRT-mediated [3H]CQ transport, cis-inhibition (% PfCRTDd2 control) ([1]; [test solute] = 2 mM): 17 ± 0.3 % PfCRTDd2 control; Uptake of [3H]CQ (% PfCRTEcu1110 control), cis-inhibition ([2]; [test solute] = 0.5 mM): 55 ± 4.2 % PfCRTEcu1110 control; Uptake of [3H]CQ (% PfCRTEcu1110 control), cis-inhibition ([2]; [test solute] = 1 mM): 45 ± 4.7 % PfCRTEcu1110 control; Uptake of [3H]CQ (% PfCRTEcu1110 control), cis-inhibition ([2]; [test solute] = 2 mM): 34 ± 3.4 % PfCRTEcu1110 control; PfCRT-mediated [3H]CQ transport, cis-inhibition (% PfCRTEcu1110 control) ([2]; [test solute] = 0.5 mM): 49 ± 2.6 % PfCRTEcu1110 control; PfCRT-mediated [3H]CQ transport, cis-inhibition (% PfCRTEcu1110 control) ([2]; [test solute] = 1 mM): 40 ± 3.5 % PfCRTEcu1110 control; PfCRT-mediated [3H]CQ transport, cis-inhibition (% PfCRTEcu1110 control) ([2]; [test solute] = 2 mM): 28 ± 2.1 % PfCRTEcu1110 control; [3H]CQ transport (% PfCRTEcu1110 control), cis-inhibition, PfCRTEcu1110 ([2]; [test solute] = 0.5 mM): 15 ± 0.1 % PfCRTEcu1110 control; [3H]CQ transport (% PfCRTEcu1110 control), cis-inhibition, PfCRTEcu1110 ([2]; [test solute] = 1 mM): 13 ± 0.3 % PfCRTEcu1110 control; [3H]CQ transport (% PfCRTEcu1110 control), cis-inhibition, PfCRTEcu1110 ([2]; [test solute] = 2 mM): 9.0 ± 0.01 % PfCRTEcu1110 control; Uptake of [3H]CQ (% PfCRT3D7 control), cis-inhibition ([3]; [test solute] = 0.5 mM): 100 ± 5.3 % PfCRT3D7 control; Uptake of [3H]CQ (% PfCRT3D7 control), cis-inhibition ([3]; [test solute] = 1 mM): 98 ± 3.5 % PfCRT3D7 control; Uptake of [3H]CQ (% PfCRT3D7 control), cis-inhibition ([3]; [test solute] = 2 mM): 100 ± 4.4 % PfCRT3D7 control; Uptake of [3H]CQ (% non-expressing oocyte control), trans-stimulation ([4]; [test solute]i = 5 mM): 97 ± 3.5 % non-expressing oocyte control; Uptake of [3H]CQ (% non-expressing oocyte control), trans-stimulation [4, 10]: 100 ± 3.2 % non-expressing oocyte control; Uptake of [3H]CQ (% PfCRTDd2 control), trans-stimulation ([5]; [test solute]i = 5 mM): 102 ± 2.2 % PfCRTDd2 control; Uptake of [3H]CQ (% PfCRTDd2 control), trans-stimulation [5, 10]: 99 ± 2.8 % PfCRTDd2 control; PfCRT-mediated [3H]CQ transport, trans-stimulation (% PfCRTDd2 control) [5, 11]: 100 ± 3.2 % PfCRTDd2 control; PfCRT-mediated [3H]CQ transport, trans-stimulation (% PfCRTDd2 control) [5, 12]: 97 ± 3.2 % PfCRTDd2 control; [3H]CQ transport (% PfCRTDd2 control), trans-stimulation, PfCRTDd2 [5, 13]: 100 ± 3.2 % PfCRTDd2 control; [3H]CQ transport (% PfCRTDd2 control), trans-stimulation, PfCRTDd2 [5, 10]: 97 ± 3.2 % PfCRTDd2 control; Uptake of [3H]CQ (% PfNT1 control), trans-stimulation ([6]; [test solute]i = 5 mM): 101 ± 2.2 % PfNT1 control; Uptake of [3H]CQ (% PfNT1 control), trans-stimulation [6, 10]: 99 ± 2.7 % PfNT1 control; Uptake of [3H]CQ (% PfCRTEcu1110 control), trans-stimulation ([7]; [test solute]i = 5 mM): 121 ± 3.2 % PfCRTEcu1110 control; Uptake of [3H]CQ (% PfCRTEcu1110 control), trans-stimulation [7, 10]: 132 ± 3.7 % PfCRTEcu1110 control; PfCRT-mediated [3H]CQ transport, trans-stimulation (% PfCRTEcu1110 control) [7, 11]: 118 ± 1.1 % PfCRTEcu1110 control; PfCRT-mediated [3H]CQ transport, trans-stimulation (% PfCRTEcu1110 control) [7, 12]: 128 ± 2.0 % PfCRTEcu1110 control; [3H]CQ transport (% PfCRTDd2 control), trans-stimulation, PfCRTEcu1110 [7, 13]: 36 ± 1.6 % PfCRTEcu1110 control; [3H]CQ transport (% PfCRTDd2 control), trans-stimulation, PfCRTEcu1110 [7, 10]: 39 ± 1.3 % PfCRTEcu1110 control; Uptake of [3H]CQ (% PfCRT3D7 control), trans-stimulation ([8]; [test solute]i = 5 mM): 135 ± 6.8 % PfCRT3D7 control; Uptake of [3H]CQ (% PfCRT3D7 control), trans-stimulation [8, 10]: 151 ± 8.0 % PfCRT3D7 control; PfCRT-mediated [3H]CQ transport, trans-stimulation (% PfCRT3D7 control) [8, 11]: 128 ± 3.6 % PfCRT3D7 control; PfCRT-mediated [3H]CQ transport, trans-stimulation (% PfCRT3D7 control) [8, 12]: 145 ± 4.7 % PfCRT3D7 control; Uptake of [3H]CQ (% non-expressing oocyte control), cis-inhibition ([9]; [test solute] = 0.5 mM): 99 ± 5.8 % non-expressing oocyte control; Uptake of [3H]CQ (% non-expressing oocyte control), cis-inhibition ([9]; [test solute] = 1 mM): 98 ± 4.6 % non-expressing oocyte control; Uptake of [3H]CQ (% non-expressing oocyte control), cis-inhibition ([9]; [test solute] = 2 mM): 99 ± 4.4 % non-expressing oocyte control
